pIC50, pKi: −log10 of the molar value. Active and inactive are the calls of the source. No cut-off for these calls is given here.
Assays:
[1] = Inhibition of baker's yeast alpha-glucosidase using phenol-alphaD-glycopyranoside as substrate preincubated for 10 mins followed by substrate addition and measured after 30 mins; parameters: species or system Saccharomyces cerevisiae
[2] = Inhibition of baker's yeast alpha-glucosidase using PNPG as substrate preincubated for 15 mins followed by substrate addition and measured after 5 mins by spectrophotometric method; parameters: species or system Saccharomyces cerevisiae
Mus musculus [3] = assay: Hypoglycemic activity in streptozocin-induced diabetic Kunming mouse assessed as blood glucose level at 50 mg/kg, po administered once daily for 18 days measured on day 12 post dose (reference value: 23.09 +/- 1.45 mM); assay type: functional
Saccharomyces cerevisiae = assay: Non-competitive inhibition of baker's yeast alpha-glucosidase assessed as Km for substrate using varying levels of phenol-alphaD-glycopyranoside as substrate preincubated for 10 mins followed by substrate addition and measured after 30 mins by double reciprocal plot analysis
[4] = Toxicity in streptozocin-induced diabetic Kunming mouse assessed as effect on body weight at 50 mg/kg, po administered once daily for 18 days measured every 6 days starting from day 1 during compound dosing; assay type: organism-based; settings: in vivo
[5] = Non-competitive inhibition of baker's yeast alpha-glucosidase using varying levels of phenol-alphaD-glycopyranoside as substrate preincubated for 10 mins followed by substrate addition and measured after 30 mins by double reciprocal plot analysis; parameters: species or system Saccharomyces cerevisiae
NIH3T3 = assay: Cytotoxicity against mouse 3T3 cells assessed as growth inhibition measured after 48 hrs by MTT assay; assay type: cell-based; settings: NIH3T3, 48 h
Mus musculus [6] = assay: Hypoglycemic activity in streptozocin-induced diabetic Kunming mouse assessed as reduction in blood glucose AUC at 50 mg/kg, po treated 30 mins prior to glucose challenge and measured up to 210 mins by OGTT; assay type: functional, organism-based
Mus musculus [7] = assay: Hypoglycemic activity in streptozocin-induced diabetic Kunming mouse assessed as blood glucose level at 50 mg/kg, po administered once daily for 18 days measured on day 12 post dose (reference value: 23.27 +/- 1.03 mM); assay type: functional
Mus musculus [8] = assay: Hypoglycemic activity in streptozocin-induced diabetic Kunming mouse assessed as reduction in blood glucose level at 50 mg/kg, po treated 30 mins prior to glucose challenge and measured up to 210 mins by OGTT; assay type: functional, organism-based
Mus musculus [9] = assay: Hypoglycemic activity in streptozocin-induced diabetic Kunming mouse assessed as reduction in blood glucose level at 50 mg/kg, po measured at 2 hrs post dose; assay type: functional, organism-based
Mus musculus [10] = assay: Hypoglycemic activity in streptozocin-induced diabetic Kunming mouse assessed as reduction in blood glucose level at 50 mg/kg, po measured at 9 hrs post dose; assay type: functional, organism-based
Mus musculus [11] = assay: Hypoglycemic activity in streptozocin-induced diabetic Kunming mouse assessed as blood glucose level at 50 mg/kg, po administered once daily for 18 days measured on day 6 post dose (reference value: 22.31 +/- 1.05 mM); assay type: functional
Mus musculus [12] = assay: Hypoglycemic activity in streptozocin-induced diabetic Kunming mouse assessed as blood glucose level at 50 mg/kg, po administered once daily for 18 days measured on day 1 post dose (reference value: 18.86 +/- 0.7 mM); assay type: functional

Question: With `CC1(C)CC[C@@]23CC[C@]4(C)[C@](OC2=O)([C@H](F)C[C@@H]2[C@@]5(C)C/C(=C\c6ccc(-c7ccccn7)cc6)C(=O)C(C)(C)[C@@H]5CC[C@]24C)[C@@H]3C1` as the compound, how does the pIC50 [1] read?
Answer: The pIC50 was 5.44.

Question: With `CC1(C)CC[C@@]23CC[C@]4(C)[C@](OC2=O)([C@H](F)C[C@@H]2[C@@]5(C)C/C(=C\c6ccccc6Cl)C(=O)C(C)(C)[C@@H]5CC[C@]24C)[C@@H]3C1` as the compound, how does the pIC50 [1] read?
Answer: Its pIC50 is 5.81.

Question: With `CC1(C)CC[C@@]23CC[C@]4(C)[C@](OC2=O)([C@H](F)C[C@@H]2[C@@]5(C)C/C(=C\c6ccc(Br)cc6F)C(=O)C(C)(C)[C@@H]5CC[C@]24C)[C@@H]3C1` as the compound, how does the pIC50 [1] read?
Answer: The pIC50 was 5.93.

Question: With `CC1(C)CC[C@@]23CC[C@]4(C)[C@](OC2=O)([C@H](F)C[C@@H]2[C@@]5(C)C/C(=C\c6cccc(F)c6)C(=O)C(C)(C)[C@@H]5CC[C@]24C)[C@@H]3C1` as the compound, how does the pIC50 [1] read?
Answer: The pIC50 was 5.55.

Question: With `COc1ncc(F)cc1/C=C1\C[C@]2(C)[C@H]3C[C@@H](F)[C@]45OC(=O)[C@@]6(CCC(C)(C)C[C@H]64)CC[C@@]5(C)[C@]3(C)CC[C@H]2C(C)(C)C1=O` as the compound, how does the pIC50 [1] read?
Answer: Its pIC50 is 5.69.

Question: With `CC1(C)CC[C@]2(C(=O)Oc3ccc(C(=O)/C=C/c4ccc(Br)cc4)cc3)CC[C@]3(C)C(=CC[C@@H]4[C@@]5(C)CCC(=O)C(C)(C)[C@@H]5CC[C@]43C)[C@@H]2C1` as the compound, how does the pIC50 [2] read?
Answer: Its pIC50 is 5.66.

Question: Which Activity (Mus musculus [3]) does the source give for `CC1(C)CC[C@@]23CC[C@]4(C)[C@](OC2=O)([C@H](F)C[C@@H]2[C@@]5(C)C/C(=C\c6cccc(Cl)c6)C(=O)C(C)(C)[C@@H]5CC[C@]24C)[C@@H]3C1` here?
Answer: The Activity was 23.51 mM.

Question: And the Km (Saccharomyces cerevisiae)?
Answer: Its Km is 120 µM.

Question: What about the Activity [4] of the same compound?
Answer: Its Activity is “Non-Toxic”.

Question: And the pKi [5]?
Answer: Its pKi is 5.83.

Question: And the pIC50 (NIH3T3)?
Answer: Its pIC50 is under 3.52.

Question: And the pIC50 [1]?
Answer: The pIC50 was 6.01.

Question: What about the Activity (Mus musculus [6]) of the same compound?
Answer: Its Activity is “Active”.

Question: And the Activity (Mus musculus [7])?
Answer: Its Activity is 17.52 mM.

Question: And the Activity (Mus musculus [8])?
Answer: Its Activity is “Active”.

Question: What about the Activity (Mus musculus [9]) of the same compound?
Answer: Its Activity is “Active”.

Question: And the Activity (Mus musculus [10])?
Answer: The Activity was “Active”.

Question: What about the Activity (Mus musculus [11]) of the same compound?
Answer: Its Activity is 24.39 mM.

Question: What about the Activity (Mus musculus [12]) of the same compound?
Answer: Its Activity is 20.66 mM.

Question: With `C[C@@H]1C[C@@H]([C@H](O)CC2CC(=O)NC(=O)C2)C(=O)[C@@H](C)C1` [CYCLOHEXIMIDE] as the compound, how does the pIC50 (NIH3T3) read?
Answer: The pIC50 was 6.60.

Question: With `Cc1cccc(/C=C2\C[C@]3(C)[C@H]4C[C@@H](F)[C@]56OC(=O)[C@@]7(CCC(C)(C)C[C@H]75)CC[C@@]6(C)[C@]4(C)CC[C@H]3C(C)(C)C2=O)c1` as the compound, how does the pIC50 [1] read?
Answer: The pIC50 was 5.67.

Question: What does the source list for `CC1(C)CC[C@@]23CC[C@]4(C)[C@](OC2=O)([C@H](F)C[C@@H]2[C@@]5(C)C/C(=C\c6ccc(Cl)cn6)C(=O)C(C)(C)[C@@H]5CC[C@]24C)[C@@H]3C1`?
Answer: Activity (Mus musculus [3]): 18.29 mM; Km (Saccharomyces cerevisiae): 120 µM; Activity [4]: Non-Toxic; pKi [5]: 5.92; pIC50 (NIH3T3): < 3.52; pIC50 [1]: 6.14; Activity (Mus musculus [6]): Active; Activity (Mus musculus [7]): 13.13 mM; Activity (Mus musculus [8]): Active; Activity (Mus musculus [9]): Active; Activity (Mus musculus [10]): Active; Activity (Mus musculus [11]): 20.51 mM; Activity (Mus musculus [12]): 17.45 mM

Question: With `CC1(C)CC[C@]2(C(=O)O)CC[C@]3(C)C(=CC[C@@H]4[C@@]5(C)CC[C@H](O)C(C)(C)[C@@H]5CC[C@]43C)[C@@H]2C1` [OLEANOLIC_ACID] as the compound, how does the pIC50 [1] read?
Answer: Its pIC50 is 5.62.

Question: With `Cc1ccc(/C=C2\C[C@]3(C)[C@H]4C[C@@H](F)[C@]56OC(=O)[C@@]7(CCC(C)(C)C[C@H]75)CC[C@@]6(C)[C@]4(C)CC[C@H]3C(C)(C)C2=O)cc1` as the compound, how does the pIC50 [1] read?
Answer: Its pIC50 is 5.89.

Question: With `CC1(C)CC[C@@]23CC[C@]4(C)[C@](OC2=O)([C@H](F)C[C@@H]2[C@@]5(C)C/C(=C\c6ccccc6F)C(=O)C(C)(C)[C@@H]5CC[C@]24C)[C@@H]3C1` as the compound, how does the pIC50 [1] read?
Answer: Its pIC50 is 5.76.

Question: With `CC1(C)CC[C@@]23CC[C@]4(C)[C@](OC2=O)([C@H](F)C[C@@H]2[C@@]5(C)CCC(=O)C(C)(C)[C@@H]5CC[C@]24C)[C@@H]3C1` as the compound, how does the pIC50 [1] read?
Answer: The pIC50 was 4.78.

Question: With `CC1(C)CC[C@@]23CC[C@]4(C)[C@](OC2=O)([C@H](F)C[C@@H]2[C@@]5(C)C/C(=C\c6ccccc6)C(=O)C(C)(C)[C@@H]5CC[C@]24C)[C@@H]3C1` as the compound, how does the pIC50 [1] read?
Answer: Its pIC50 is 5.46.

Question: With `CC1(C)CC[C@@]23CC[C@]4(C)[C@](OC2=O)([C@H](F)C[C@@H]2[C@@]5(C)C/C(=C\c6ccccc6Br)C(=O)C(C)(C)[C@@H]5CC[C@]24C)[C@@H]3C1` as the compound, how does the pIC50 [1] read?
Answer: The pIC50 was 5.60.

Reference: ChEMBL document CHEMBL4422652, “Synthesis and biological evaluation of novel oleanolic acid analogues as potential α-glucosidase inhibitors” (Eur J Med Chem, 2019)
